In PubChem BioAssay AID179 (DTP/NCI, 2004):
Activity calls are given as the source filed them.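 Rule for the calls: active = compounds giving half or more protection of infected cells from virus-caused growth loss, again on retest; inactive = the rest.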

System: CEM cells HIV-1 protection, formazan growth assay
Assay: NCI AIDS Antiviral Assay
Settings: for IC50: measured here: growth of uninfected CEM cells
Summary of the method: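 Protection of CEM cells against HIV-1 was scored from cell growth (soluble formazan) across five concentrations, with parallel uninfected cells. Lack of protection may reflect toxicity.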

Structure (SMILES) | EC50 | IC50 | outcome
Nc1ccc2oc3cccc(N)c3c(=O)c2c1 | > 22.9 µM | > 22.9 µM | 
Cc1ccc2c(c1)C(C1Cc3cccc(C)c3C1=O)OC2=O (stereo not given) | > 200 µM | > 200 µM | 
C/C(=N/OC(=O)N(C)C)c1cccc(Cl)c1 | > 200 µM | 166 µM | 
CCOC(=O)Cn1c(=O)cc(C)c2ccccc21 | > 200 µM | > 200 µM | 
COc1cc(OC)c2nc(C)c3c(c2c1)SCC3 | > 200 µM | > 200 µM | 
CCOC(=O)C(c1ccccc1)c1cccc(C(C(=O)OCC)c2ccccc2)n1 (stereo not given) | > 17.8 µM | > 17.8 µM | 
[N-]=[N+]=NC1C2CC3CC(C2)CC1C3 (stereo not given) | > 77.6 µM | > 77.6 µM | 
CCOC(=O)/C(=C\c1ccccc1OC)P(=O)(OCC)OCC | > 724 µM | 13.2 µM | 
Clc1ccc2c(Cl)ncnc2c1I | > 30.9 µM | 7.41 µM | 
O=c1[nH]cnc2c1ncn2C1C=CC(CO)CC1 (stereo not given) | > 200 µM | > 200 µM | 
O=C1CCCC/C1=C/c1ccccc1 | > 200 µM | 12.9 µM | 
CN(C)c1ccc(/C=C2\CCCCCC2=O)cc1 | > 200 µM | 26.9 µM | 
[Cl-].[Rh+3].c1ccc(-c2ccnc3c2ccc2c(-c4ccccc4)ccnc23)cc1.c1ccc(-c2ccnc3c2ccc2c(-c4ccccc4)ccnc23)cc1.c1ccc(-c2ccnc3c2ccc2c(-c4ccccc4)ccnc23)cc1 | > 11 µM | 7.08 µM | 
C/C(=C\c1csc(C)n1)[C@@H]1C[C@@H]2O[C@]2(C)CCC[C@H](C)[C@H](O)[C@@H](C)C(=O)C(C)(C)[C@@H](O)CC(=O)O1 (tested in a mixture with another compound) | > 0.02 µM | 0.001 µM | 
O=C(N/N=C/c1ccccc1)c1c(F)c(F)c(F)c(F)c1F | > 200 µM | 112 µM | 
O=C(CC(C(=O)c1cccs1)c1ccsc1)c1ccc(Cl)s1 (stereo not given) | > 200 µM | 97.7 µM | 
Cc1cn(C2CC3OP(=O)(C(C)(C)C#N)OCC3O2)c(=O)[nH]c1=O (stereo not given) | > 708 µM | 447 µM | 
C[C@]12CC[C@@H]3c4cc(Br)c(O)c(Br)c4CC[C@H]3[C@@H]1CC(Br)C2=O (stereo not given in full) | > 200 µM | 3.47 µM | 
O=c1[nH]c(N/N=C\C(=N/Nc2nc3ccccc3c(=O)[nH]2)C(O)C(O)C(O)CO)nc2ccccc12 (stereo not given) | > 200 µM | > 200 µM | 
CC(=O)Oc1ccccc1C(=O)Nc1ccc(S(=O)(=O)c2ccc(NC(=O)c3ccccc3OC(C)=O)cc2)cc1 | > 200 µM | > 200 µM | 
COc1cccc(/C=C/C(=O)c2ccccc2)c1O | 14.5 µM | 112 µM | 

Structure (SMILES) | EC50 | IC50 | outcome
O=c1[nH]nc(Cc2ccccc2)n1/N=C\c1ccccc1 | > 200 µM | > 200 µM | 
Cc1cccnc1NC(=S)Nc1ccccc1Cl | > 200 µM | 0.813 µM | 
COc1ccc(-c2c(C(=O)O)oc3cc(O)ccc3c2=O)cc1OC | > 200 µM | > 200 µM | 
FC1OC2OC1C(OCc1ccccc1)C(OCc1ccccc1)C2OCc1ccccc1 (stereo not given) | > 6.03 µM | > 6.03 µM | 
O=C(SCc1c(O)c2ccccc2oc1=O)c1ccccc1 | > 200 µM | 67.6 µM | 
CSc1nc2c(c(N(C)C)n1)C(O)n1c(nc3ccccc31)S2 (stereo not given) | > 200 µM | > 200 µM | 
COc1cc(-c2cc(-c3ccccc3)c3cc(Cl)ccc3n2)cc(OC)c1OC | > 200 µM | > 200 µM | 
CC(C)(C)[Si](C)(C)OC1C(C/[N+]([O-])=N\Nc2ccc([N+](=O)[O-])cc2)OC(n2ccc(=O)[nH]c2=O)C1O[Si](C)(C)C(C)(C)C (stereo not given) | > 200 µM | 1.95 µM | 
O=C(NCCNCCNC(=O)c1cc(-c2ccccc2)nc2ccccc12)c1cc(-c2ccccc2)nc2ccccc12 | > 20 µM | 3.47 µM | 
CCNC(=O)Nc1ccc(Cl)cn1 | > 200 µM | 132 µM | 
Cc1cc(N(CCC#N)CCC#N)ccc1/C=C1/CN(N2C(=O)/C(=C/c3ccc(N(CCC#N)CCC#N)cc3C)N=C2c2ccccc2)C(c2ccccc2)=N1 | > 5.01 µM | > 5.01 µM | 
Cn1c2ccccc2c2nnc(N/N=C/c3ccc([N+](=O)[O-])o3)nc21 | > 200 µM | > 200 µM | 
CC(=O)Nc1ccc(-c2nnc(SCC(=O)Nc3ccc(Cl)cc3Cl)o2)cc1 | > 42.7 µM | 25.1 µM | 
O=C1c2c(O)cccc2[C@H](O)[C@]23O[C@]12CC[C@]1(O)CCC[C@@H](O)[C@@H]13 | > 20 µM | 0.977 µM | 
O=C1CCCCC1CN1CCCCC1 (stereo not given) |  |  | inactive
Cc1nc2c(nc1C)C(=O)C(Br)=CC2=O |  |  | inactive
COc1cccc2c1-c1nc(N)c3c(OC)cccc3c1C2=O | 74.1 µM | > 200 µM | 
CCOc1ccc(OCC(=O)O)c2c1CCCC2=O |  |  | inactive
Nc1nc(N)c(CCCCc2ccccc2)c(Cc2ccccc2)n1 |  |  | inactive
COc1cc(C(O)(CC#N)c2cc3c(cc2Br)OCO3)cc(OC)c1OC (stereo not given) | > 200 µM | 10 µM | 
CC1(n2[nH]c(=O)n(-c3ccccc3)c2=O)Cn2c(=O)n(-c3ccccc3)c(=O)n2-c2ccccc21 (stereo not given) | > 200 µM | > 200 µM | 
